Experimental data taken from patent publication US20260335307A1, “ANTIMICROBIAL COMBINATIONS” (Helperby Therapeutics Limited, priority 2022, published 2026).

Key:
[1] = test system: ESBL E. coli; assay: Chequerboard assay (OD600, MIC and FIC) of 4-mer combinations against ESBL E. coli; assay type: cell-based; conditions: for MIC Monotherapy (X): drug alone; for MIC combination therapy (Y): drug in 4-mer ceftazidime, doxycycline; for Ratio Y:X: MIC combination / MIC monotherapy
Description: (§1) Synergy is not predictable or expected when two or more actives are used in combination. […] One of the ways to assess whether synergy has been observed is to use the “chequerboard” technique. This is a well-accepted method that leads to the generation of a value called the fractional inhibitory concentration index (FICI). Orhan et al., J. Clin. Microbiol. 2005, 43(1):140 describes the chequerboard method and analysis in the paragraph bridging pages 140-141, and explains that the FICI value is a ratio of the sum of the MIC (Minimum Inhibitory Concentration) level of each individual component alone and in the mixture.
FICI or fractional inhibitory concentration index is the sum of the FICs of each antimicrobial when used in combination. The FIC or fractional inhibitory concentration of an antimicrobial in a combination, is the MIC of the antimicrobial in the combination divided by the MIC of the same antimicrobial when used alone. Minimum inhibitory concentrations are defined in the art as the lowest concentration of an antimicrobial that will inhibit the visible growth of a microorganism after overnight incubation.
There has in fact been very little previous work in this field. […] This method is applicable for any combination with “n” antimicrobial agents.
In this method, two antibiotics were “fixed” as part of a backbone whilst the two other antibiotics were varied over a doubling concentration scale beginning at the MIC (×1) for the effective dose in monotherapy against the organism being tested. The ΣFIC was then calculated as shown below.
The ΣFIC was divided by “0.5/n” where n=number of antimicrobials in the combination to provide FIC. The inventors opted for this expression because it more closely aligns with the 2-mer synergy levels. The same FIC scale as used for 2-mers was applied: synergy is observed when FIC is <0.5. An “Additive” effect is observed when FIC is 0.5 to <1. Indifference is observed when FIC is 1 to <2. Antagonism is observed when FIC is 2 to 4.
Synergy can be expressed as “ΣFIC≤0.25×n”.
The above method was used in the Examples herein.
The antimicrobial agents were sourced from commercially available sources. They were prepared by being weighed and dissolved in water, PBS, DMSO or acidified water to a final concentration from 1-10 mg/mL. Antimicrobial solutions were diluted to 10× highest concentration used in the experiment and subsequently diluted 2x over a series not exceeding 11 serial dilutions. These left the operator with a maximum of 12 different, descending concentrations of the chosen antimicrobials.
The bacteria were obtained from Ninewells Hospital and Medical School in Dundee, Scotland. They were obtained as patient strains and characterised by Vitek 2 screening. To prepare for the Examples below, the bacteria were grown overnight in Mueller Hinton Cation adjusted broth or until confluent in media with or without supplements. The bacteria were measured for OD600 and readings of <0.25 were returned to the incubator.
All data herein was produced using the same chequerboard assay.
20 uL of antibiotic A (backbone) and 20 uL of antibiotic B (backbone), at a single dilution, were pipetted into all wells of a 96-well plate to be used.
20 uL of the lowest concentration of antibiotic C (first variable) was pipetted into column 1 of the 96-well plate. The second concentration (2-fold more concentrate) was pipetted into column 2. This process was repeated until all concentrations of antibiotic […] to be used were complete.
20 uL of the lowest concentration of antibiotic D (second variable) were pipetted into row A of the 96-well plate. The second concentration (2-fold more concentrate) was pipetted into row B. This process was repeated until all concentrations of antibiotic […] to be used were complete.
120 uL of sterile media (BHI/MHB2) was added.
20 ul of prepared bacterial culture was added.
Plates were sealed with lids and left to incubate for 16 hours, overnight.

[2] = test system: KPC (Klebsiella pneumoniae carbapenemase) producing K. pneumoniae; assay: Chequerboard assay (percentage kill from OD600, MIC and FIC) of 4-mer combination against KPC producing K. pneumoniae; assay type: cell-based; conditions: Example 4, backbone ceftazidime + colistin
Description: as §1
FICI or fractional inhibitory concentration index is the sum of the FICs of each antimicrobial when used in combination. […]
In this method, two antibiotics were “fixed” as part of a backbone whilst the two other antibiotics were varied over a doubling concentration scale beginning at the MIC (×1) for the effective dose in monotherapy against the organism being tested. The ΣFIC was then calculated as shown below. […]
Synergy can be expressed as “ΣFIC≤0.25×n”. […]
The bacteria were obtained from Ninewells Hospital and Medical School in Dundee, Scotland. […] The bacteria were measured for OD600 and readings of <0.25 were returned to the incubator. […]

[3] = Example 1, backbone ceftazidime + doxycycline
[4] = Example 1, backbone ceftazidime + doxycycline, colistin, rifampicin
[5] = Example 1, backbone colistin + ceftazidime
[6] = Example 3, backbone rifampicin + doxycycline
[7] = Example 2, backbone colistin + doxycycline
[8] = Example 2, backbone colistin + doxycycline, colistin, levofloxacin
[9] = Example 3, backbone rifampicin + doxycycline, rifampicin, levofloxacin

## CO[C@H]1/C=C/O[C@@]2(C)Oc3c(C)c(O)c4c(O)c(c(/C=N/N5CCN(C)CC5)c(O)c4c3C2=O)NC(=O)/C(C)=C\C=C\[C@H](C)[C@H](O)[C@@H](C)[C@@H](O)[C@@H](C)[C@H](OC(C)=O)[C@@H]1C [Rifampicin]
[1]; [3]
  MIC Monotherapy (X): 4 µg/mL
[1]; [4]
  MIC combination therapy (Y): 0.5 µg/mL
[1]; [5]
  MIC Monotherapy (X): 4 µg/mL
[1]; [6]
  MIC Monotherapy (X): 1 µg/mL

## C[C@H]1COc2c(N3CCN(C)CC3)c(F)cc3c(=O)c(C(=O)O)cn1c23 [Levofloxacin]
[1]; [7]
  Ratio Y:X: 0.03125
  MIC Monotherapy (X): 8 µg/mL
[1]; [8]
  MIC combination therapy (Y): 0.25 µg/mL
[1]; [6]
  Ratio Y:X: 0.03125
  MIC Monotherapy (X): 8 µg/mL
[1]; [9]
  MIC combination therapy (Y): 0.25 µg/mL

## CC(C)(O/N=C(\C(=O)N[C@@H]1C(=O)N2C(C(=O)[O-])=C(C[n+]3ccccc3)CS[C@H]12)c1csc(N)n1)C(=O)O [Ceftazidime]
[1]; Escherichia coli, read-out: isolate resistant to ceftazidime at
  MIC: ≥ 32 µg/mL
[1]; [4]
  MIC combination therapy (Y): 4 µg/mL
[1]; [8]
  MIC combination therapy (Y): 16 µg/mL
[1]; [9]
  MIC combination therapy (Y): 16 µg/mL

## C[C@H]1c2cccc(O)c2C(=O)C2=C(O)[C@]3(O)C(=O)C(C(N)=O)=C(O)[C@@H](N(C)C)[C@@H]3[C@@H](O)[C@@H]21 [Doxycycline]
[2]; drug alone
  MIC Monotherapy (X): 1 µg/mL
[2]; drug in 4-mer ceftazidime, doxycycline, rifampicin, colistin
  MIC combination therapy (Y): 0.25 µg/mL
[1]; [3]
  MIC Monotherapy (X): 1 µg/mL
[1]; [5]
  MIC Monotherapy (X): 1 µg/mL
[1]; Example 1, backbone colistin + ceftazidime, colistin, rifampicin
  MIC combination therapy (Y): 0.25 µg/mL
[1]; [7]
  MIC Monotherapy (X): 1 µg/mL
[1]; [6]
  MIC Monotherapy (X): 1 µg/mL
